Data from patent publication US12624026B2, “Inhibitors of SARM1” (Disarm Therapeutics, Inc., priority 2018, dated 2026).

Each molecule was assayed against T1, SARM1 SAM-TIR (Homo sapiens, UniProt Q6SZW1) (assay: biochemical). Details: not given.
T1 construct: a fragment of the SARM1 molecule encompassing the SAM and TIR domains; made in house; host or cells: NRK1-HEK293T cells, transiently transfected; the cleared, unpurified lysate was used as the enzyme
T1 sequence (Q6SZW1 409-724 limits assumed): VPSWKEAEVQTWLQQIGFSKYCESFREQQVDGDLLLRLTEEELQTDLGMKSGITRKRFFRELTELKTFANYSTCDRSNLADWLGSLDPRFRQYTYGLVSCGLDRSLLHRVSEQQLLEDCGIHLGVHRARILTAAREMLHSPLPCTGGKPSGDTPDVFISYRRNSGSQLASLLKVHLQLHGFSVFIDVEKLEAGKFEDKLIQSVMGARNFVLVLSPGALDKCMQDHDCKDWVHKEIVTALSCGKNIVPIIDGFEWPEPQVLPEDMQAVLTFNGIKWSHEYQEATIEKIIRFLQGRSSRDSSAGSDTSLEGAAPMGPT
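Note: inhibition of SARM1 SAM-TIR NADase activity, i.e. NAD+ cleavage, using lysate of NRK1-HEK293T cells overexpressing the SAM-TIR fragment.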

| Compound | IC50 |
| --- | --- |
| O=C(c1c(Nc2ccccc2C(F)(F)F)s[nH]c1=O)N1CCCC1 [Example 110] | 1000 to 5000 nM |
| N#Cc1c(Nc2cccc(C3=CCNCC3)c2C(F)(F)F)s[nH]c1=O [Example 131] | < 1000 nM |

Same assay, conditions: SAM-TIR lysate 5 μg/mL, 2 h pre-incubation, 5 μM NAD+, RapidFire MS of NAD+ and ADPR; read-out: SARM1 IC50

| Compound | IC50 |
| --- | --- |
| N#Cc1c(Nc2c(Cl)ccc3ncccc23)s[nH]c1=O [Example 104] | 1000 to 5000 nM |
| N#Cc1c(Nc2ccccc2C(F)(F)F)sn(CCC(=O)O)c1=O [Example 105] | < 1000 nM |
| COc1ccc2nc(C)ccc2c1Nc1s[nH]c(=O)c1C#N [Example 106] | 1000 to 5000 nM |
| CC(C)n1sc(Nc2ccccc2C(F)(F)F)c(C#N)c1=O [Example 107] | < 1000 nM |
| N#Cc1c(Nc2cccc(C(N)=O)c2C(F)(F)F)s[nH]c1=O [Example 108] | 1000 to 5000 nM |
| COc1cccc(C)c1Nc1s[nH]c(=O)c1C#N [Example 109] | 1000 to 5000 nM |
| N#Cc1c(Nc2ccccc2C2CC2)s[nH]c1=O [Example 111] | 1000 to 5000 nM |
| CN(C(=O)c1c(Nc2ccccc2C(F)(F)F)s[nH]c1=O)C1CCCCC1 [Example 112] | 1000 to 5000 nM |
| COc1cccc(OC)c1Nc1s[nH]c(=O)c1C#N [Example 113] | 1000 to 5000 nM |
| COCCN(C)C(=O)c1c(Nc2ccccc2C(F)(F)F)sn([C@@H](C)c2ccccc2)c1=O [Example 114] | > 5000 nM |
| CN(C)C(=O)c1c(Nc2ccccc2C(F)(F)F)s[nH]c1=O [Example 115] | 1000 to 5000 nM |
| COCCN(C)C(=O)c1c(Nc2ccccc2C(F)(F)F)s[nH]c1=O [Example 116] | > 5000 nM |
| O=C(c1c(Nc2ccccc2C(F)(F)F)s[nH]c1=O)N1CCCCC1 [Example 117] | 1000 to 5000 nM |
| COCCn1sc(Nc2c(Cl)cccc2Cl)c(C(N)=O)c1=O [Example 118] | > 5000 nM |
| COCCN(C)C(=O)c1c(Nc2c(Cl)cccc2Cl)s[nH]c1=O [Example 119] | > 5000 nM |
| N#Cc1c(Nc2cccc(C(=O)O)c2C(F)(F)F)s[nH]c1=O [Example 120] | > 5000 nM |
| COc1ccc(Cn2sc(N(CCF)c3ccccc3C(F)(F)F)c(C#N)c2=O)cc1 [Example 121] | > 5000 nM |
| N#Cc1c(Nc2cccc3ncccc23)sn(CCC(N)=O)c1=O [Example 122] | < 1000 nM |

| Compound | IC50 |
| --- | --- |
| COC(=O)c1c(Nc2ccccc2C(F)(F)F)s[nH]c1=O [Example 123] | > 5000 nM |
| COCCN(C)C(=N)c1c(Nc2cccc(Cl)c2Cl)sn(CCOC)c1=O [Example 124] | < 1000 nM |
| CN(C)C(=N)c1c(Nc2ccccc2Cl)sn(C)c1=O [Example 125] | < 1000 nM |
| Cn1sc(Nc2ccccc2Cl)c(C(=N)N2CCOCC2)c1=O [Example 126] | < 1000 nM |
| COCCn1sc(Nc2cccc(Cl)c2Cl)c(C(=N)N2CCCCC2)c1=O [Example 127] | < 1000 nM |
| C[C@@H](c1ccccc1)n1sc(Nc2ccccc2C(F)(F)F)c(C(=N)N(C)C)c1=O [Example 128] | < 1000 nM |
| COCCn1sc(Nc2cccc(Cl)c2Cl)c(C(=N)N2CCOCC2)c1=O [Example 130] | < 1000 nM |
| Cn1sc(Nc2c(Cl)cccc2Cl)c(C(=N)N2CCOCC2)c1=O [Example 132] | < 1000 nM |
| CN(C)C(=N)c1c(Nc2cccc(Cl)c2Cl)s[nH]c1=O [Example 133] | < 1000 nM |
| C[C@@H](c1ccccc1)n1sc(Nc2c(Cl)cccc2Cl)c(C(=N)N(C)C)c1=O [Example 134] | 1000 to 5000 nM |
| COCCn1sc(Nc2c(OC)cccc2C(F)(F)F)c(C(=N)N(C)C)c1=O [Example 135] | 1000 to 5000 nM |
| N=C(c1c(Nc2cccc(Cl)c2Cl)s[nH]c1=O)N1CCOCC1 [Example 136] | 1000 to 5000 nM |
| C[C@@H](c1ccccc1)n1sc(Nc2ccccc2C(F)(F)F)c(C(=N)N2CCOCC2)c1=O [Example 137] | 1000 to 5000 nM |
| CN(C)C(=N)c1c(Nc2ccccc2C(F)(F)F)s[nH]c1=O [Example 138] | 1000 to 5000 nM |
| COCCN(C)C(=N)c1c(Nc2cccc(Cl)c2Cl)s[nH]c1=O [Example 139] | 1000 to 5000 nM |
| Cn1sc(Nc2c(F)cccc2Cl)c(C(=O)N2CCOCC2)c1=O [Example 140] | 1000 to 5000 nM |
| COCCN(C)C(=N)c1c(Nc2ccccc2C(F)(F)F)s[nH]c1=O [Example 141] | 1000 to 5000 nM |
